These results are taken from patent US20120165339A1, “CYCLOPROPANE DERIVATIVES” (EISAI R&D MANAGEMENT CO., LTD., priority 2010, published 2012).

In one assay the test system is mice (C57BL/6NCrlCrLj). The assay can be described thus: Sleep experiment (EEG/EMG) in mice. Particulars: oral administration, accumulated sleep over 3 hours, difference to vehicle-administration day. Format: in vivo. The method, then: As a method for measuring the influence of the present compound on sleep time, electroencephalogram (EEG) and electromyogram (EMG) measurements were carried out in mice (C57BL/6NCrlCrLj).
In order to measure brain waves and muscle signals, EEG and EMG electrode implantation was performed on individual mice, and the mice were then housed in a state in which they could freely move and habituate in individual recording cages for 1 week or longer. Thereafter, amplified EEG and EMG signals were digitally recorded.
Mice received either oral administration of vehicle or test compound in vehicle, after which sleep/wake behavior of mice was recorded for 3 hours.
For sleep analysis, automatic analysis software from Kissei Comtec Co., Ltd. was used to analyze EEG frequency and EMG activity signals in detail and to determine sleep and wake states. Thereafter, accumulated sleeping time over 3 hours was calculated.
The effect of the compound to increase sleep time was evaluated as the difference between sleeping time on the vehicle-administration day and the sleep time on the subsequent drug-administration day.

Assay [1] deals with T1, OX2 (Homo sapiens, UniProt O43614).
T1 sequence (O43614 1-444): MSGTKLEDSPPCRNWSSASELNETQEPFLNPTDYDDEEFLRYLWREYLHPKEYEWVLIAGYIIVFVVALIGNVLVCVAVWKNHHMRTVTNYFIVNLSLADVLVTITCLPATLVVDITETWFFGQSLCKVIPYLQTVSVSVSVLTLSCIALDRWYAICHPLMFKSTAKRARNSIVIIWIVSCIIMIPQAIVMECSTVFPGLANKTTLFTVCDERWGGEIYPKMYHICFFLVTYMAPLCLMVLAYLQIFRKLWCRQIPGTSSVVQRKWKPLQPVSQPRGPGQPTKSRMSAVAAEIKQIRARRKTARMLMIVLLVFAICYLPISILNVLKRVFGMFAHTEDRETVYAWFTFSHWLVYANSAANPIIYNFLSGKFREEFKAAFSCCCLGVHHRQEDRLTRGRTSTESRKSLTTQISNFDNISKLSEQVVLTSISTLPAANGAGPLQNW
Nature of the assay: Orexin-receptor binding ability, [125I]-OX-A, CHO cell membranes expressing OX2. Details: expressed in transfected cells; host or cells: CHO cells (membrane preparation). The conditions noted are these: membranes of recombinant CHO cells, 0.2 nM [125I]-OX-A tracer; read-out: OX2 (IC50). In short, it runs like this:
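Competition binding used membranes from recombinant CHO cells (5 μg protein/assay) with 0.2 nM [125I]-OX-A tracer and varied compound concentrations. Incubation was 30 min at room temperature in 25 mM HEPES pH 7.5 with CaCl2, MgCl2, 0.5% BSA, 0.05% Tween-20 and 0.2% DMSO. Bound radioactivity was counted by scintillation after one wash, giving IC50 (nM).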

In assay [2] the target is T1, OX2. The assay can be described thus: Antagonism PLAP reporter assay, HEK-293 cells expressing human OX2. Format: cell-based. The arrangement: expressed in transfected cells; host or cells: HEK-293 cell line, expression vector pBabeCLIH. The conditions noted are these: HEK-293, 1 nM human OX-A; IC50 converted to Ki by Cheng-Prusoff equation. The method, then: (§1) The antagonistic function of the compound of the present invention to prevent the activation of OX2 and OX1 by orexin-A (OX-A), which is a natural peptide agonist, was measured using a cell-based reporter assay. A HEK-293 cell line expressing genetically recombinant human OX2 (accession No. NM_001526.3) or a HEK-293 cell line expressing genetically recombinant human OX1 (accession No. NM_001525.2), which had pBabeCLIH as expression vector, was used. The cells were plated at a density of 10,000 cells/well onto a non-coated 96-well plate in Dulbecco's modified Eagle medium (Sigma Cat No. D6046: 10% v/v heat-inactivated fetal bovine serum was contained). The cells were cultured at 37° C. overnight, so that they could adhere to the plate. On the following day, cells were incubated with a compound of the present invention dissolved in Dulbecco's modified Eagle medium (Sigma Cat No. A8806: 0.1% w/v bovine serum albumin was contained), and added to the cell plate to reach a final concentration of 0.1% dimethyl sulfoxide.
(§2) The thus obtained mixture was incubated at room temperature for 1 hour. Thereafter, human OX-A and forskolin were dissolved in the same medium as described above, which contained fetal bovine serum albumin, and the medium was then added to the cells, resulting in a final concentration of 300 nM forskolin. Subsequently, the cells were cultured at 37° C. for approximately 18 to 24 hours. During the culture, as a result of activation of the orexin receptor and subsequent dose-dependent increase in intracellular calcium concentration, a reporter enzyme, placental alkaline phosphatase (PLAP), was expressed under the control of a CRE x4+VIP promoter in a pBabeCLcre4vPdNN vector and secreted into the culture medium supernatant. On the following day, reporter enzyme activity was detected by mixing 5 ul of the culture medium supernatant with 20 ul of detection buffer (containing 1.34 g/L sodium bicarbonate, 1.27 g/L sodium carbonate and 0.2 g/L magnesium sulfate heptahydrate in water) and 25 ul of Lumi-Phos530 reagent (Wako Pure Chemical Industries Ltd.), followed by incubating the obtained mixture light-protected at room temperature for 2 hours, before performing luminescence measurement (ARVO Reader, PerkinElmer). The Kd value of human OX-A with respect to each receptor was measured by titration from 0 to 300 nM. Then, the IC50 value of the compound of the present invention with respect to the activity of 1 nM human OX-A was converted into a Ki value (nM) using the Cheng-Prusoff equation.

Assay [3] has as its target T2, OX1 (Homo sapiens, UniProt O43613).
T2 sequence (O43613 1-425): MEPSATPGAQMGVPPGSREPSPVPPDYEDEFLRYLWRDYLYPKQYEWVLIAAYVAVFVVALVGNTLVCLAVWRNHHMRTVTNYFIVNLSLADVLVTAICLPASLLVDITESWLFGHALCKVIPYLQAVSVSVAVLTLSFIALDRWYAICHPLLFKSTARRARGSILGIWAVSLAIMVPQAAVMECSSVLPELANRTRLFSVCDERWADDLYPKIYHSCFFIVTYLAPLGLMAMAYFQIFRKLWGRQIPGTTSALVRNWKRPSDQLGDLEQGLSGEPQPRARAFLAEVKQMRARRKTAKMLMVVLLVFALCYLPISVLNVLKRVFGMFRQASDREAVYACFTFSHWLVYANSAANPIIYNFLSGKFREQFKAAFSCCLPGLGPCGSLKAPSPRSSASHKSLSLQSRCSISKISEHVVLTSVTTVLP
The assay can be described thus: Antagonism PLAP reporter assay, HEK-293 cells expressing human OX1. It is filed as cell-based. The arrangement: expressed in transfected cells; host or cells: HEK-293 cell line, expression vector pBabeCLIH. The conditions noted are these: HEK-293, 1 nM human OX-A; IC50 converted to Ki by Cheng-Prusoff equation. The method, then: as §1, §2

Assay [4] deals with T2, OX1. The assay can be described thus: Orexin-receptor binding ability, [125I]-OX-A, CHO cell membranes expressing OX1. Details: expressed in transfected cells; host or cells: CHO cells (membrane preparation). Particulars: membranes of recombinant CHO cells, 0.2 nM [125I]-OX-A tracer; read-out: OX1 (IC50). In short, it runs like this:
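Buffer was 25 mM HEPES pH 7.5, 1 mM CaCl2, 4.5 mM MgCl2, 0.5% BSA, 0.1% sodium azide, 0.05% Tween-20 and 0.2% DMSO. Bound radioactivity was counted by scintillation, and IC50 values were reported.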

`COc1ccc(OC[C@@]2(c3ccccc3)C[C@H]2C(=O)Nc2ccc(C#N)cn2)cc1OC` [Example 4, (1R,2S)—N-(5-cyanopyridin-2-yl)-2-[(3,4-dimethoxyphenyl)oxymethyl]-2-phenylcyclopropanecarboxamide]: in the assay on mice (C57BL/6NCrlCrLj), the “Sleep extended time (min/3 hrs)” value was 57 min/3 hrs. In addition, the figures for the IC50 at OX2 [1] and on OX1 [4] were 13 nM and 129 nM, respectively. Besides, the results for the Ki on OX2 [2] and at OX1 [3] were 5.1 nM and 65.2 nM, respectively.

For `Cc1nc(C(F)(F)F)nn1CC[C@@]1(c2ccccc2)C[C@H]1C(=O)Nc1ccc(F)cn1` [Example 121], the “Sleep extended time (min/3 hrs)” value with mice (C57BL/6NCrlCrLj) was determined as 21.3 min/3 hrs. In addition, the IC50 (usually the point on the concentration scale where inhibition reaches its midpoint) at OX2 [1] amounted to 19 nM; on OX1 [4], 166 nM. In addition, the Ki (commonly a dissociation constant, usually derived from enzyme kinetics or from competition with a known ligand) on OX2 [2] is 31.4 nM; on OX1 [3], 406 nM.

For the molecule `Cc1nc(C(F)(F)F)nn1CC[C@@]1(c2ccccc2)C[C@H]1C(=O)Nc1ccc(Cl)cn1` [Example 122], in the assay with mice (C57BL/6NCrlCrLj), the “Sleep extended time (min/3 hrs)” value is on record as 21.8 min/3 hrs. In addition, the IC50 on OX2 [1] was 3 nM; at OX1 [4] it was 98 nM. The Ki amounted to 10 nM on OX2 [2] and 140 nM at OX1 [3].

In the case of `COc1ccc(OCC2(c3ccccc3)CC2C(=O)Nc2ccccc2)cc1OC` (stereo not shown) [Example 1], the IC50 at OX2 [1] and at OX1 [4] was 7 nM throughout. Further, the figures for the Ki on OX2 [2] and at OX1 [3] were 54 nM and 395 nM, respectively.

Consider `COc1ccc(OCC2(c3ccccc3)CC2C(=O)Nc2ccncc2Cl)cc1OC` (stereo not shown) [Example 14, N-(3-chloropyridin-4-yl)-2-[(3,4-dimethoxyphenyl)oxymethyl]-2-phenylcyclopropanecarboxamide], for which the half-inhibitory concentration (IC50) stood at 46 nM at OX2 [1] and 438 nM on OX1 [4]. In addition, the inhibition constant (Ki) at OX2 [2] is 99 nM; on OX1 [3], greater than 816 nM.

In the case of `CCc1nc(Cl)cn1CCC1(c2ccccc2)CC1C(=O)Nc1ccc(C#N)cn1` (stereo not shown) [Example 114], the IC50 on OX2 [1] amounted to 49 nM; on OX1 [4] it was 868 nM. In addition, the Ki on OX2 [2] is 210 nM; at OX1 [3] it was greater than 467 nM.

In the case of `COc1ccc(OCC2(c3ccccc3)CC2C(=O)Nc2ncc(C)s2)cc1OC` (stereo not shown) [Example 22, N-(5-methyl-1,3-thiazol-2-yl)-2-[(3,4-dimethoxyphenyl)oxymethyl]-2-phenylcyclopropanecarboxamide], the half-maximal inhibitory concentration (IC50) on OX2 [1] came to 35 nM; at OX1 [4], 296 nM. Moreover, the results for the Ki on OX2 [2] and on OX1 [3] were greater than 614 nM and greater than 816 nM, respectively.

Regarding `Cc1noc2cc(OCC3(c4ccccc4)CC3C(=O)Nc3ccc(C#N)cn3)ccc12` (stereo not shown) [Example 61], the IC50 at OX2 [1] is 70 nM; on OX1 [4], 520 nM. The Ki at OX2 [2] came out at 32.9 nM; at OX1 [3], 275 nM.

As to `CCc1nc(Cl)cn1CCC1(c2ccccc2)CC1C(=O)Nc1ccc(F)cn1` (stereo not shown) [Example 113], the IC50 turned out to be 49 nM on OX2 [1] and 944 nM at OX1 [4]. In addition, the figures for the Ki at OX2 [2] and at OX1 [3] were 62.7 nM and greater than 467 nM, respectively.

Regarding `COc1cccc(NC(=O)C2CC2(COc2ccc(OC)c(OC)c2)c2ccccc2)c1` (stereo not shown) [Example 34, N-(3-methoxyphenyl)-2-[(3,4-dimethoxyphenyl)oxymethyl]-2-phenylcyclopropanecarboxamide], the IC50 on OX2 [1] was found to be 6 nM; on OX1 [4], 20 nM. Moreover, the Ki was found to be 4.5 nM at OX2 [2] and 24 nM on OX1 [3].

Regarding `CCn1cc(OCC2(c3ccccc3)CC2C(=O)Nc2ccc(C#N)cn2)ccc1=O` (stereo not shown) [Example 55], the IC50 stood at 33 nM on OX2 [1] and 675 nM at OX1 [4]. Besides, the Ki is 43.6 nM on OX2 [2] and greater than 467 nM at OX1 [3].

Turning to `CCn1nc(C)c(Cl)c1OCC1(c2ccccc2)CC1C(=O)Nc1ccc(Cl)cn1` (stereo not shown) [Example 75], the half-inhibitory concentration (IC50) was 26 nM at OX2 [1] and 477 nM at OX1 [4]. Also, the Ki was 30.8 nM at OX2 [2] and greater than 816 nM at OX1 [3].

Take `Cc1ccc(OCC2(c3ccccc3)CC2C(=O)Nc2ccc(Cl)cn2)c(C)n1` (stereo not shown) [Example 62]: the IC50 amounted to 61 nM on OX2 [1] and 44 nM at OX1 [4]. For the same molecule, the Ki on OX2 [2] amounted to 30.2 nM; on OX1 [3], 481 nM.
